Results published in ChEMBL document CHEMBL3272315, “Synthesis of angiotensin II antagonists containing N- and O-methylated and other amino acid residues” (J Med Chem, 1976).
Non-standard residues stand in square brackets, D forms with d. Residues, ends and D or L forms follow the SMILES beside them. Sar = CNCC(=O)O

Columns and labels:
Rattus norvegicus [1] = organism: Rattus norvegicus; test: Induction of pressor in vagotomized and ganglion-blocked rat assessed as initial pressor activity relative to angiotensin 2; assay type: functional
Felis catus = organism: Felis catus; test: Agonist activity at angiotensin AT2 receptor in isolated cat adrenal medulla assessed as secretory activity relative to angiotensin 2; assay type: tissue-based
[2] = Antagonist activity at angiotensin AT2 receptor in rabbit aortic strips assessed as inhibition of angiotensin 2- myotropic mediated response; conditions: Oryctolagus cuniculus; read-out: pA2 (converted)
[3] = Antagonist activity at angiotensin AT2 receptor in isolated cat adrenal medulla; assay type: tissue-based, Felis catus
Rattus norvegicus [4] = test: Induction of blood pressure in vagotomized and ganglion-blocked rat at 250 ng/kg/min, iv measured at 3 mins; assay type: functional
Rattus norvegicus [5] = test: Induction of blood pressure in vagotomized and ganglion-blocked rat at 250 ng/kg/min, iv measured at 10 mins; assay type: functional
Rattus norvegicus [6] = test: Induction of blood pressure in vagotomized and ganglion-blocked rat at 250 ng/kg/min, iv measured at 30 mins; assay type: functional
Rattus norvegicus [7] = test: Potentiation of angiotensin 2-induced of blood pressure in vagotomized and ganglion-blocked rat at 250 ng/kg/min, iv relative to before compound infusion; assay type: functional
Rattus norvegicus [8] = test: Induction of blood pressure in sham operated rat at 250 ng/kg/min, iv measured at 3 mins (reference value: 0.78 +/- 0.26 mmHg); assay type: functional
Rattus norvegicus [9] = test: Induction of blood pressure in sham operated rat at 250 ng/kg/min, iv measured at 30 mins (reference value: 3.66 +/- 0.74 mmHg); assay type: functional
Rattus norvegicus [10] = test: Potentiation of angiotensin 2-induced blood pressure in sham operated rat at 250 ng/kg/min, iv relative to before compound infusion; assay type: functional
Rattus norvegicus [11] = test: Induction of blood pressure in rat at 250 ng/kg/min, iv measured at 3 mins in presence of propranolol (reference value: 0.78 +/- 0.26 mmHg); assay type: functional
Rattus norvegicus [12] = test: Induction of blood pressure in rat at 250 ng/kg/min, iv measured at 30 mins in presence of propranolol (reference value: 3.66 +/- 0.74 mmHg); assay type: functional
Rattus norvegicus [13] = test: Induction of blood pressure in rat at 250 ng/kg/min, iv measured at 3 mins (reference value: 0.78 +/- 0.26 mmHg); assay type: functional
Rattus norvegicus [14] = test: Induction of blood pressure in rat at 250 ng/kg/min, iv measured at 30 mins (reference value: 3.66 +/- 0.74 mmHg); assay type: functional
Rattus norvegicus [15] = test: Induction of blood pressure in acute adrenalectomized rat at 250 ng/kg/min, iv measured at 3 mins (reference value: 0.78 +/- 0.26 mmHg); assay type: functional
Rattus norvegicus [16] = test: Induction of blood pressure in acute adrenalectomized rat at 250 ng/kg/min, iv measured at 30 mins (reference value: 3.66 +/- 0.74 mmHg); assay type: functional
Rattus norvegicus [17] = test: Induction of blood pressure in 6 days adrenalectomized rat at 250 ng/kg/min, iv measured at 3 mins (reference value: 0.78 +/- 0.26 mmHg); assay type: functional
Rattus norvegicus [18] = test: Induction of blood pressure in 6 days adrenalectomized rat at 250 ng/kg/min, iv measured at 30 mins (reference value: 3.66 +/- 0.74 mmHg); assay type: functional
Rattus norvegicus [19] = test: Induction of blood pressure in chronic adrenalectomized rat at 250 ng/kg/min, iv measured at 3 mins (reference value: 0.78 +/- 0.26 mmHg); assay type: functional
Rattus norvegicus [20] = test: Induction of blood pressure in chronic adrenalectomized rat at 250 ng/kg/min, iv measured at 30 mins (reference value: 3.66 +/- 0.74 mmHg); assay type: functional
Rattus norvegicus [21] = test: Potentiation of angiotensin 2-induced blood pressure in rat at 250 ng/kg/min, iv relative to before compound infusion; assay type: functional
Rattus norvegicus [22] = test: Potentiation of angiotensin 2-induced blood pressure in acute adrenalectomized rat at 250 ng/kg/min, iv relative to before compound infusion; assay type: functional
Rattus norvegicus [23] = test: Potentiation of angiotensin 2-induced blood pressure in acute adrenalectomized rat at 250 ng/kg/min, iv in presence of propranolol relative to before compound infusion; assay type: functional
Rattus norvegicus [24] = test: Potentiation of angiotensin 2-induced blood pressure in 6 days adrenalectomized rat at 250 ng/kg/min, iv in presence of propranolol relative to before compound infusion; assay type: functional
Rattus norvegicus [25] = test: Potentiation of angiotensin 2-induced blood pressure in chronic adrenalectomized rat at 250 ng/kg/min, iv in presence of propranolol relative to before compound infusion; assay type: functional
Rattus norvegicus [26] = organism: Rattus norvegicus; test: Induction of pressor in vagotomized and ganglion-blocked rat assessed as initial pressor activity up to 10 ug/ml relative to angiotensin 2; assay type: functional
Rattus norvegicus [27] = test: Induction of blood pressure in vagotomized and ganglion-blocked rat at 6000 ng/kg/min, iv measured at 3 mins; assay type: functional
Rattus norvegicus [28] = test: Induction of blood pressure in vagotomized and ganglion-blocked rat at 6000 ng/kg/min, iv measured at 10 mins; assay type: functional
Rattus norvegicus [29] = test: Induction of blood pressure in vagotomized and ganglion-blocked rat at 6000 ng/kg/min, iv measured at 30 mins; assay type: functional
Rattus norvegicus [30] = test: Potentiation of angiotensin 2-induced of blood pressure in vagotomized and ganglion-blocked rat at 6000 ng/kg/min, iv relative to before compound infusion; assay type: functional
Rattus norvegicus [31] = test: Induction of blood pressure in acute adrenalectomized rat at 250 ng/kg/min, iv measured at 3 mins in presence of propranolol (reference value: 0.78 +/- 0.26 mmHg); assay type: functional
Rattus norvegicus [32] = test: Induction of blood pressure in acute adrenalectomized rat at 250 ng/kg/min, iv measured at 30 mins in presence of propranolol (reference value: 3.66 +/- 0.74 mmHg); assay type: functional

## CC[C@H](C)[C@H](NC(=O)[C@@H]1CCCN1C(=O)[C@H](Cc1cnc[nH]1)NC(=O)[C@@H](NC(=O)[C@H](Cc1ccc(O)cc1)NC(=O)[C@@H](NC(=O)[C@H](CCCNC(=N)N)NC(=O)[C@H](CC(=O)O)NC)C(C)C)[C@@H](C)CC)C(=O)O
Rattus norvegicus [1]
  Activity: 0.76%
Felis catus
  Activity: 1.01%
[2]
  Kb: 1.82 nM
[3]
  pA2: 8.16
Rattus norvegicus [4]
  Activity: 10.14 mmHg
Rattus norvegicus [5]
  Activity: 16.57 mmHg
Rattus norvegicus [6]
  Activity: 16.57 mmHg
Rattus norvegicus [7]
  Ratio: 33.43

## CC[C@H](C)[C@H](NC(=O)[C@H](Cc1ccc(O)cc1)NC(=O)[C@@H](NC(=O)[C@H](CCCNC(=N)N)NC(=O)CNC)C(C)C)C(=O)N[C@@H](Cc1cnc[nH]1)C(=O)N1CCC[C@H]1C(=O)N[C@H](C(=O)O)[C@@H](C)OC
Rattus norvegicus [8]
  Activity: 19.25 mmHg
Rattus norvegicus [9]
  Activity: 11 mmHg
Rattus norvegicus [10]
  Ratio: 45.86
Rattus norvegicus [11]
  Activity: 11.5 mmHg
Rattus norvegicus [12]
  Activity: -1.25 mmHg
Felis catus
  Activity: 0.1%
[3]
  pA2: 7
Rattus norvegicus [13]
  Activity: 13.82 mmHg
Rattus norvegicus [14]
  Activity: 15.63 mmHg
Rattus norvegicus [15]
  Activity: 7.75 mmHg
Rattus norvegicus [16]
  Activity: 7.62 mmHg
Rattus norvegicus [17]
  Activity: 3 mmHg
Rattus norvegicus [18]
  Activity: -0.4 mmHg
Rattus norvegicus [19]
  Activity: 5 mmHg
Rattus norvegicus [20]
  Activity: 2.25 mmHg
Rattus norvegicus [21]
  Ratio: 62.52
Rattus norvegicus [22]
  Ratio: 22.96
Rattus norvegicus [23]
  Ratio: 54.16
Rattus norvegicus [24]
  Ratio: 11.61
Rattus norvegicus [25]
  Ratio: 12.06

## CC[C@H](C)[C@@H](C(=O)N[C@@H](Cc1cnc[nH]1)C(=O)N1CCC[C@H]1C(=O)N(C)[C@H](C(=O)O)[C@@H](C)CC)N(C)C(=O)[C@H](Cc1ccc(O)cc1)NC(=O)[C@@H](NC(=O)[C@H](CCCNC(=N)N)NC(=O)CNC)C(C)C
Felis catus
  Activity: < 0.01%
Rattus norvegicus [26]
  Activity: 0%
[2]
  Kb: 12.9 nM
[3]
  pA2: 8
Rattus norvegicus [4]
  Activity: 1 mmHg
Rattus norvegicus [5]
  Activity: 3.2 mmHg
Rattus norvegicus [6]
  Activity: 7 mmHg
Rattus norvegicus [27]
  Activity: 2.5 mmHg
Rattus norvegicus [28]
  Activity: 3.16 mmHg
Rattus norvegicus [29]
  Activity: 7.33 mmHg
Rattus norvegicus [7]
  Ratio: 0.62
Rattus norvegicus [30]
  Ratio: 0.82

## CC[C@H](C)[C@H](NC(=O)[C@H](Cc1ccc(O)cc1)NC(=O)[C@@H](NC(=O)[C@H](CCCNC(=N)N)NC(=O)CNC)C(C)C)C(=O)N[C@@H](Cc1cnc[nH]1)C(=O)N1CCC[C@H]1C(=O)N[C@@H](CO)C(=O)O (H-[Sar]RVYIHPS-OH)
Rattus norvegicus [1]
  Activity: 0.66%
Felis catus
  Activity: 0.05%
[2]
  Kb: 8.32 nM
[3]
  pA2: 9.33
Rattus norvegicus [4]
  Activity: 9.57 mmHg
Rattus norvegicus [5]
  Activity: 9.57 mmHg
Rattus norvegicus [6]
  Activity: 11.42 mmHg
Rattus norvegicus [7]
  Ratio: 11.15

## CC[C@H](C)[C@H](NC(=O)[C@@H]1CCCN1C(=O)[C@H](Cc1cnc[nH]1)NC(=O)[C@@H](NC(=O)[C@H](Cc1ccc(O)cc1)N(C)C(=O)[C@@H](NC(=O)[C@H](CCCNC(=N)N)NC(=O)CNC)C(C)C)[C@@H](C)CC)C(=O)O
Rattus norvegicus [1]
  Activity: 0.34%
Felis catus
  Activity: 0.11%
[2]
  Kb: 36.3 nM
[3]
  pA2: 9.16
Rattus norvegicus [4]
  Activity: 8 mmHg
Rattus norvegicus [5]
  Activity: 10 mmHg
Rattus norvegicus [6]
  Activity: 9.8 mmHg
Rattus norvegicus [27]
  Activity: 39.2 mmHg
Rattus norvegicus [28]
  Activity: 21.6 mmHg
Rattus norvegicus [29]
  Activity: 14.4 mmHg
Rattus norvegicus [7]
  Ratio: 2.14
Rattus norvegicus [30]
  Ratio: 12.09

## CC[C@H](C)[C@H](NC(=O)[C@H](Cc1ccc(O)cc1)NC(=O)[C@@H](NC(=O)[C@H](CCCN=C(N)N)NC(=O)CNC)C(C)C)C(=O)N[C@@H](Cc1c[nH]cn1)C(=O)N1CCC[C@H]1C(=O)N[C@H](C(=O)O)[C@@H](C)O (H-[Sar]RVYIHPT-OH)
Felis catus
  Activity: 0%
[3]
  pA2: 9
Rattus norvegicus [13]
  Activity: 9.46 mmHg
Rattus norvegicus [14]
  Activity: 9.2 mmHg
Rattus norvegicus [15]
  Activity: 7.57 mmHg
Rattus norvegicus [16]
  Activity: 4.57 mmHg
Rattus norvegicus [7]
  Ratio: 26.9
Rattus norvegicus [22]
  Ratio: 5.52

## CC[C@H](C)[C@H](NC(=O)[C@H](Cc1ccc(O)cc1)NC(=O)[C@@H](NC(=O)[C@H](CCCNC(=N)N)NC(=O)CNC)C(C)C)C(=O)N[C@@H](Cc1cnc[nH]1)C(=O)N1CCC[C@H]1C(=O)N(C)[C@H](C(=O)O)[C@@H](C)CC
Rattus norvegicus [1]
  Activity: 1.06%
Felis catus
  Activity: 0.1%
[2]
  Kb: 14.1 nM
[3]
  pA2: 8
Rattus norvegicus [4]
  Activity: 25.1 mmHg
Rattus norvegicus [5]
  Activity: 36 mmHg
Rattus norvegicus [6]
  Activity: 32 mmHg
Rattus norvegicus [13]
  Activity: 25.1 mmHg
Rattus norvegicus [14]
  Activity: 32 mmHg
Rattus norvegicus [15]
  Activity: 24.66 mmHg
Rattus norvegicus [16]
  Activity: 30.33 mmHg
Rattus norvegicus [31]
  Activity: 21 mmHg
Rattus norvegicus [32]
  Activity: 17.71 mmHg
Rattus norvegicus [7]
  Ratio: 2.99
Rattus norvegicus [21]
  Ratio: 2.99
Rattus norvegicus [22]
  Ratio: 2.53
Rattus norvegicus [23]
  Ratio: 2.56

## CC[C@H](C)[C@H](NC(=O)[C@@H]1CCCN1C(=O)[C@H](Cc1c[nH]cn1)NC(=O)[C@@H](NC(=O)[C@H](Cc1ccc(O)cc1)NC(=O)[C@@H](NC(=O)[C@H](CCCN=C(N)N)NC(=O)CNC)C(C)C)[C@@H](C)CC)C(=O)O
Felis catus
  Activity: 3%
[2]
  Kb: 0.676 nM
[3]
  pA2: 9.5
Rattus norvegicus [13]
  Activity: 17.81 mmHg
Rattus norvegicus [14]
  Activity: 14.81 mmHg
Rattus norvegicus [15]
  Activity: 8.9 mmHg
Rattus norvegicus [16]
  Activity: 1.8 mmHg
Rattus norvegicus [21]
  Ratio: 27.79
Rattus norvegicus [22]
  Ratio: 6.04

## CC[C@H](C)[C@H](NC(=O)[C@H](Cc1ccc(O)cc1)NC(=O)[C@@H](NC(=O)[C@H](CCCNC(=N)N)NC(=O)CNC)C(C)C)C(=O)N[C@@H](Cc1cnc[nH]1)C(=O)N1CCC[C@H]1C(=O)N[C@@H](CCSC)C(=O)O (H-[Sar]RVYIHPM-OH)
Rattus norvegicus [1]
  Activity: 3.74%
Felis catus
  Activity: < 0.01%
[2]
  Kb: 2.34 nM
[3]
  pA2: 9.16
Rattus norvegicus [4]
  Activity: 36.75 mmHg
Rattus norvegicus [5]
  Activity: 36.75 mmHg
Rattus norvegicus [6]
  Activity: 32.5 mmHg

## CC[C@H](C)[C@H](NC(=O)[C@@H]1CCCN1C(=O)[C@H](Cc1c[nH]cn1)NC(=O)[C@H]([C@@H](C)CC)N(C)C(=O)[C@H](Cc1ccc(O)cc1)NC(=O)[C@@H](NC(=O)[C@H](CCCN=C(N)N)NC(=O)CNC)C(C)C)C(=O)O
Rattus norvegicus [1]
  Activity: 0.46%
Felis catus
  Activity: 0.01%
[2]
  Kb: 22.9 nM
[3]
  pA2: 9.31
Rattus norvegicus [4]
  Activity: 15.66 mmHg
Rattus norvegicus [5]
  Activity: 23 mmHg
Rattus norvegicus [6]
  Activity: 22.8 mmHg
Rattus norvegicus [7]
  Ratio: 3.26
